Data reported in US5840684A, “Glycopeptide antibiotic derivatives” (Eli Lilly and Company, priority 1995, dated 1998).
≈ marks a conversion by molar mass, not a printed value.

Assays:
[1] = test system: Staphylococcus aureus SA1199B; format: cell-based
Method: (§1) The MIC's were determined using a standard broth micro-dilution assay.

[2] = test system: Entercoccus faecium 180-1; test: broth micro-dilution MIC; format: cell-based
Method: as §1

Entercoccus faecium 276 = test: broth micro-dilution MIC; format: cell-based
Method: as §1

[3] = test system: Staphylococcus aureus 446; test: broth micro-dilution MIC; format: cell-based
Method: as §1

[4] = test system: Staphylococcus aureus 447; test: broth micro-dilution MIC; format: cell-based
Method: as §1

[5] = test system: Staphylococcus aureus 491; test: broth micro-dilution MIC; format: cell-based
Method: as §1

[6] = test system: Staphylococcus aureus SA1199A; test: broth micro-dilution MIC; format: cell-based
Method: as §1

[7] = test system: Staphylococcus aureus SA1199; test: broth micro-dilution MIC; format: cell-based
Method: as §1

[8] = test system: Staphylococcus aureus X400; test: broth micro-dilution MIC; format: cell-based
Method: as §1

[9] = test system: Streptococcus pyogenes C203; test: broth micro-dilution MIC; format: cell-based
Method: as §1

Entercoccus faecium 2041 = test: broth micro-dilution MIC; format: cell-based; conditions: Entercoccus faecium 2041
Method: (§2) The formula I compounds have in vitro and in vivo activity against Gram-positive pathogenic bacteria. The MIC's were determined using a standard broth micro-dilution assay.

[10] = test system: Enterococcus gallinarum 245; test: broth micro-dilution MIC; format: cell-based; conditions: Enterococcus gallinarum 245
Method: as §2

[11] = test system: Staphylococcus epidermidis 270; test: broth micro-dilution MIC; format: cell-based
Method: as §2

[12] = test system: Staphylococcus haemolyticus 105; test: broth micro-dilution MIC; format: cell-based
Method: as §2

[13] = test system: Staphylococcus haemolyticus 415; test: broth micro-dilution MIC; format: cell-based
Method: as §2

[14] = test system: Streptococcus pneumoniae P1; test: broth micro-dilution MIC; format: cell-based
Method: as §2

Streptococcus pyogenes = test: mouse protection, experimentally-induced infection; format: in vivo; conditions: mice infected with Streptococcus pyogenes, two doses
Streptococcus pneumoniae = test: mouse protection, experimentally-induced infection; format: in vivo; conditions: mice infected with Streptococcus pneumoniae, two doses
[15] = test system: vancomycin-resistant enterococci; test: broth micro-dilution, mean geometric MIC; format: cell-based, Enterococcus faecium and Enterococcus faecalis; conditions: enterococci, 24-hour incubation
[16] = test system: vancomycin-susceptible enterococci; test: broth micro-dilution, mean geometric MIC; format: cell-based, Enterococcus faecium and Enterococcus faecalis; conditions: enterococci, 24-hour incubation
[17] = test system: Staphylococcus aureus S13E; format: cell-based
Method: as §1

[18] = test system: Staphylococcus aureus 489; test: broth micro-dilution MIC; format: cell-based
Method: as §1

[19] = test system: Staphylococcus aureus X778; test: broth micro-dilution MIC; format: cell-based
Method: as §1

Entercoccus faecium 180 = test: broth micro-dilution MIC; format: cell-based; conditions: Entercoccus faecium 180
Method: as §2

Compound	MIC [1] [µg/mL]	MIC [2] [µg/mL]	MIC (Entercoccus faecium 276) [µg/mL]	MIC [3] [µg/mL]	MIC [4] [µg/mL]	MIC [5] [µg/mL]	MIC [6] [µg/mL]	MIC [7] [µg/mL]	MIC [8] [µg/mL]	MIC [9] [µg/mL]	MIC (Entercoccus faecium 2041) [µg/mL]	MIC [10] [µg/mL]	MIC [11] [µg/mL]	MIC [12] [µg/mL]	MIC [13] [µg/mL]	MIC [14] [µg/mL]	ED50 (Streptococcus pyogenes) [mg/kg/2]	ED50 (Streptococcus pneumoniae) [mg/kg/2]	mean geometric MIC, Vancomycin Resistant Strains [15] [µg/mL]	mean geometric MIC, Vancomycin Sensitive Strains [16] [µg/mL]	further results
CN[C@H](CC(C)C)C(=O)N[C@H]1C(=O)N[C@@H](CC(N)=O)C(=O)N[C@H]2C(=O)N[C@H]3C(=O)N[C@H](C(=O)N[C@H](C(=O)O)c4cc(O)cc(O)c4-c4cc3ccc4O)[C@H](O[C@H]3C[C@](C)(N)[C@@H](O)[C@H](C)O3)c3ccc(c(Cl)c3)Oc3cc2cc(c3O[C@@H]2O[C@H](CO)[C@@H](O)[C@H](O)[C@H]2O[C@H]2C[C@](C)(NCc3ccc(-c4ccc(C)cc4)cc3)[C@@H](O)[C@H](C)O2)Oc2ccc(cc2Cl)[C@H]1O [Compound 97]	1 (≈ 0.564 µM)	≤ 0.06	≤ 0.06	1 (≈ 0.564 µM)	1 (≈ 0.564 µM)	0.5 (≈ 0.282 µM)	≤ 0.06	2 (≈ 1.13 µM)	1 (≈ 0.564 µM)	≤ 0.06	≤ 0.06	2 (≈ 1.13 µM)	1 (≈ 0.564 µM)	2 (≈ 1.13 µM)	2 (≈ 1.13 µM)	≤ 0.06	0.066	0.038	0.71	0.054	
CCc1ccc(-c2ccc(CNC3(C)CC(OC4C(Oc5c6cc7cc5Oc5ccc(cc5Cl)C(OC5CC(C)(N)C(O)C(C)O5)C5NC(=O)C(NC(=O)C7NC(=O)C(CC(N)=O)NC(=O)C(NC(=O)C(CC(C)C)NC)C(O)c7ccc(c(Cl)c7)O6)c6ccc(O)c(c6)-c6c(O)cc(O)cc6C(C(=O)O)NC5=O)OC(CO)C(O)C4O)OC(C)C3O)cc2)cc1 (stereo not shown) [Compound 90]	1 (≈ 0.56 µM)	≤ 0.06	2 (≈ 1.12 µM)	2 (≈ 1.12 µM)	1 (≈ 0.56 µM)	2 (≈ 1.12 µM)	0.5 (≈ 0.28 µM)	2 (≈ 1.12 µM)	1 (≈ 0.56 µM)	≤ 0.06	0.125 (≈ 0.07 µM)	2 (≈ 1.12 µM)	1 (≈ 0.56 µM)	2 (≈ 1.12 µM)	2 (≈ 1.12 µM)	≤ 0.06	0.058	0.049	0.71	0.041	MIC [17]: 1 µg/mL (≈ 0.56 µM); MIC [18]: 2 µg/mL (≈ 1.12 µM); MIC [19]: 1 µg/mL (≈ 0.56 µM); MIC (Entercoccus faecium 180): 0.25 µg/mL (≈ 0.14 µM)
CNC(CC(C)C)C(=O)NC1C(=O)NC(CC(N)=O)C(=O)NC2C(=O)NC3C(=O)NC(C(=O)NC(C(=O)O)c4cc(O)cc(O)c4-c4cc3ccc4O)C(OC3CC(C)(N)C(O)C(C)O3)c3ccc(c(Cl)c3)Oc3cc2cc(c3OC2OC(CO)C(O)C(O)C2OC2CC(C)(NCc3ccc(Oc4cccc(Cl)c4)c([N+](=O)[O-])c3)C(O)C(C)O2)Oc2ccc(cc2Cl)C1O (stereo not shown) [Compound 87]	0.5 (≈ 0.27 µM)	≤ 0.06	≤ 0.06	1 (≈ 0.539 µM)	0.5 (≈ 0.27 µM)	2 (≈ 1.08 µM)	≤ 0.06	2 (≈ 1.08 µM)	1 (≈ 0.539 µM)	≤ 0.06	≤ 0.06	2 (≈ 1.08 µM)	1 (≈ 0.539 µM)	1 (≈ 0.539 µM)	2 (≈ 1.08 µM)	≤ 0.06	0.054	0.027	0.71	0.047	MIC [17]: 0.5 µg/mL (≈ 0.27 µM); MIC [18]: 0.5 µg/mL (≈ 0.27 µM); MIC [19]: 2 µg/mL (≈ 1.08 µM); MIC (Entercoccus faecium 180): ≤ 0.06 µg/mL
CNC(CC(C)C)C(=O)NC1C(=O)NC(CC(N)=O)C(=O)NC2C(=O)NC3C(=O)NC(C(=O)NC(C(=O)O)c4cc(O)cc(O)c4-c4cc3ccc4O)C(OC3CC(C)(N)C(O)C(C)O3)c3ccc(c(Cl)c3)Oc3cc2cc(c3OC2OC(CO)C(O)C(O)C2OC2CC(C)(NCc3cccc(Oc4cccc(C(F)(F)F)c4)c3)C(O)C(C)O2)Oc2ccc(cc2Cl)C1O (stereo not shown) [Compound 111]	1 (≈ 0.543 µM)	≤ 0.06	0.5 (≈ 0.271 µM)	2 (≈ 1.09 µM)	1 (≈ 0.543 µM)	2 (≈ 1.09 µM)	0.5 (≈ 0.271 µM)	2 (≈ 1.09 µM)	1 (≈ 0.543 µM)	≤ 0.06	≤ 0.06	4 (≈ 2.17 µM)	1 (≈ 0.543 µM)	1 (≈ 0.543 µM)	4 (≈ 2.17 µM)	≤ 0.06	0.099	0.084	0.71	0.031	MIC [17]: 1 µg/mL (≈ 0.543 µM); MIC [18]: 1 µg/mL (≈ 0.543 µM); MIC [19]: 2 µg/mL (≈ 1.09 µM); MIC (Entercoccus faecium 180): ≤ 0.06 µg/mL
CCCc1ccc(-c2ccc(CNC3(C)CC(OC4C(Oc5c6cc7cc5Oc5ccc(cc5Cl)C(OC5CC(C)(N)C(O)C(C)O5)C5NC(=O)C(NC(=O)C7NC(=O)C(CC(N)=O)NC(=O)C(NC(=O)C(CC(C)C)NC)C(O)c7ccc(c(Cl)c7)O6)c6ccc(O)c(c6)-c6c(O)cc(O)cc6C(C(=O)O)NC5=O)OC(CO)C(O)C4O)OC(C)C3O)cc2)cc1 (stereo not shown) [Compound 107]	2 (≈ 1.11 µM)	≤ 0.06	1 (≈ 0.555 µM)	2 (≈ 1.11 µM)	1 (≈ 0.555 µM)	1 (≈ 0.555 µM)	≤ 0.06	1 (≈ 0.555 µM)	1 (≈ 0.555 µM)	≤ 0.06	0.5 (≈ 0.278 µM)	2 (≈ 1.11 µM)	0.5 (≈ 0.278 µM)	2 (≈ 1.11 µM)	2 (≈ 1.11 µM)	≤ 0.06	0.27	0.092	0.59	0.082	MIC [17]: 2 µg/mL (≈ 1.11 µM); MIC [18]: 1 µg/mL (≈ 0.555 µM); MIC [19]: 0.5 µg/mL (≈ 0.278 µM); MIC (Entercoccus faecium 180): 0.125 µg/mL (≈ 0.0694 µM)
CN[C@H](CC(C)C)C(=O)N[C@H]1C(=O)N[C@@H](CC(N)=O)C(=O)N[C@H]2C(=O)N[C@H]3C(=O)N[C@H](C(=O)N[C@H](C(=O)O)c4cc(O)cc(O)c4-c4cc3ccc4O)[C@H](O[C@H]3C[C@](C)(N)[C@@H](O)[C@H](C)O3)c3ccc(c(Cl)c3)Oc3cc2cc(c3O[C@@H]2O[C@H](CO)[C@@H](O)[C@H](O)[C@H]2O[C@H]2C[C@](C)(NCc3ccc(Oc4ccc(Cl)cc4)c([N+](=O)[O-])c3)[C@@H](O)[C@H](C)O2)Oc2ccc(cc2Cl)[C@H]1O [Compound 94]	2 (≈ 1.08 µM)	≤ 0.06	0.125 (≈ 0.0674 µM)	1 (≈ 0.539 µM)	0.5 (≈ 0.27 µM)	0.5 (≈ 0.27 µM)	≤ 0.06	0.5 (≈ 0.27 µM)	1 (≈ 0.539 µM)	≤ 0.06	≤ 0.06	2 (≈ 1.08 µM)	1 (≈ 0.539 µM)	2 (≈ 1.08 µM)	2 (≈ 1.08 µM)	≤ 0.06	0.16	0.049	0.50	0.041	MIC [17]: 2 µg/mL (≈ 1.08 µM); MIC [18]: 2 µg/mL (≈ 1.08 µM); MIC [19]: 0.5 µg/mL (≈ 0.27 µM)
CCCCCCCCCOc1ccc(CNC2(C)CC(OC3C(Oc4c5cc6cc4Oc4ccc(cc4Cl)C(OC4CC(C)(N)C(O)C(C)O4)C4NC(=O)C(NC(=O)C6NC(=O)C(CC(N)=O)NC(=O)C(NC(=O)C(CC(C)C)NC)C(O)c6ccc(c(Cl)c6)O5)c5ccc(O)c(c5)-c5c(O)cc(O)cc5C(C(=O)O)NC4=O)OC(CO)C(O)C3O)OC(C)C2O)cc1 (stereo not shown) [Compound 8]		0.5 (≈ 0.274 µM)	4 (≈ 2.19 µM)	2 (≈ 1.1 µM)	8 (≈ 4.38 µM)	4 (≈ 2.19 µM)	2 (≈ 1.1 µM)	2 (≈ 1.1 µM)	8 (≈ 4.38 µM)	≤ 0.06	4 (≈ 2.19 µM)	8 (≈ 4.38 µM)	4 (≈ 2.19 µM)	8 (≈ 4.38 µM)	8 (≈ 4.38 µM)	≤ 0.06	> 0.5	0.273	1.0		MIC [17]: 8 µg/mL (≈ 4.38 µM); MIC [19]: 8 µg/mL (≈ 4.38 µM); MIC (Entercoccus faecium 180): 1 µg/mL (≈ 0.548 µM)
